From patent US6897210B2, “Quinazoline derivatives and pharmaceutical compositions containing them” (Zeneca Limited, priority 1996, dated 2005)
Structures can show the parent of a compound that is named as a salt.

Tested on: not given
Assay: not given
Details: not given

melting point [°C] | Structure (SMILES)
206 to 208 | COc1cc2ncnc(Nc3ccc(C)c(O)c3)c2c([N+](=O)[O-])c1OC.Cl
> 250 | COc1cc2c(Nc3ccc(Cl)cc3F)ncnc2cc1OCCCS(C)(=O)=O (as salt: hydrochloride) [Example 16, 4-(4-chloro-2-fluoroanilino)-6-methoxy-7-(3-(methylsulphonyl)propoxy)quinazoline]
181 to 182 | COc1cc2c(Nc3ccc(Cl)cc3F)ncnc2cc1OCCN1CCSCC1 [Example 12, 4-(4-chloro-2-fluoroanilino)-6-methoxy-7-(2-thiomorpholinoethoxy)quinazoline]
227 to 230 | COc1cc2c(Nc3ccc(Cl)cc3F)ncnc2cc1OCCS(C)(=O)=O [Example 30, 4-(4-chloro-2-fluoroanilino)-6-methoxy-7-(2-methylsulphonylethoxy)quinazoline]
> 250 | COc1cc2c(Nc3ccc(Br)cc3F)ncnc2cc1OCCCS(C)(=O)=O [Example 32, 4-(4-bromo-2-fluoroanilino)6-methoxy-7-(3-methylsulphonylpropoxy)quinazoline]
202 to 203 | COc1cc2c(Nc3ccc(Cl)cc3F)ncnc2cc1OCCN1C(=O)CCCC1=O [Example 35, 4-(4-chloro-2-fluoroanilino)-7-(2-(2,6-dioxopiperidino)ethoxy)-6-methoxyquinazoline]
250 to 252 | COc1cc2c(Nc3ccc(Cl)cc3F)ncnc2cc1OCCN1CCCC1=O.Cl [Example 39, 4-(4-chloro-2-fluoroanilino)6-methoxy-7-(2-(2-oxopyrrolidin-1-yl)ethoxy)quinazoline hydrochloride]

Structure (SMILES) | melting point [°C]
COc1cc2c(Nc3ccc(Cl)cc3F)ncnc2cc1OCC#CCN1CCOCC1.Cl.O (hydrate or solvate) [Example 10, 4-(4-chloro-2-fluoroanilino)-6-methoxy-7-(4-morpholinobut-2-yn-1-yloxy)quinazoline hydrochloride hydrate] | 175 to 178
COCCOc1cc2ncnc(Nc3ccc(C)c(OC(C)=O)c3)c2cc1OC [Example 1, 4-(3-acetoxy-4-methylanilino)-6-methoxy-7-(2-methoxyethoxy)quinazoline] | 180 to 183
COc1cc2c(Nc3ccc(Cl)cc3F)ncnc2cc1OCCNC(=O)OC(C)(C)C [Example 34, 7-(2-[N-tert-butoxycarbonylamino]ethoxy)4-(4-chloro-2-fluoroanilino)6-methoxyquinazoline] | 190 to 191

Tested on: VEGF receptor tyrosine kinase (Flt, KDR)
Assay: In vitro receptor tyrosine kinase inhibition test (VEGF receptor)
Format: biochemical
Details: VEGF receptor tyrosine kinase compared with EGF receptor tyrosine kinase
From the text: (a) In Vitro Receptor Tyrosine Kinase Inhibition Test
This assay determines the ability of a test compound to inhibit tyrosine kinase activity. […] These may then be expressed in a suitable expression system to obtain polypeptide with tyrosine kinase activity. […] This recombinant construct was co-transfected into insect cells (for example Spodoptera frugiperda 21(Sf21)) with viral DNA (eg Pharmingen BaculoGold) to prepare recombinant baculovirus.
For expression of cFlt tyrosine kinase activity, Sf21 cells were infected with plaque-pure cFlt recombinant virus at a multiplicity of infection of 3 and harvested 48 hours later. […] The suspension was centrifuged for 10 minutes at 13,000 rpm at 4° C., the supernatant (enzyme stock) was removed and stored in aliquots at −70° C. Each new batch of stock enzyme was titrated in the assay by dilution with enzyme diluent (100 mM Hepes pH 7.4, 0.2 mM sodium orthovanadate. 0.1% v/v Triton X100, 0.2 mM dithiothreitol). For a typical batch, stock enzyme is diluted 1 in 2000 with enzyme diluent and 50 μl of dilute enzyme is used for each assay well.
A stock of substrate solution was prepared from a random copolymer containing tyrosine, for example Poly (Glu, Ala, Tyr) 6:3:1 (Sigma P3899), stored as 1 mg/ml stock in PBS at −20° C. and diluted 1 in 500 with PBS for plate coating.
On the day of the assay the substrate solution was discarded and the assay plate wells were washed once with PBST (PBS containing 0.05% v/v Tween 20) and once with 50 mM Hepes pH7.4.
Test compounds were diluted with 10% dimethylsulphoxide (DMSO) and 25 μl of diluted compound was transferred to wells in the washed assay plates. “Total” control wells contained 10% DMSO instead of compound. Twenty five microliters of 40 mM manganese(II)chloride containing 8 μM adenosine-5′-triphosphate (ATP) was added to all test wells except “blank” control wells which contained maganese(II)chloride without ATP. To start the reactions 50 μl of freshly diluted enzyme was added to each well and the plates were incubated at room temperature for 20 minutes. The liquid was then discarded and the wells were washed twice with PBST. […] Plates were then incubated for 20-60 minutes at room temperature until the optical density value of the “total” control wells, measured at 405 nm using a plate reading spectrophotometer, was approximately 1.0.

activity against VEGF and EGF receptor tyrosine kinases | Structure (SMILES)
substantially equivalent activity | COc1cc2c(Nc3ccc(Cl)cc3F)ncnc2cc1OCCN1CCOCC1=O.Cl [Example 52, 4-(4-chloro-2-fluoroanilino)6-methoxy-7-(2-(3-oxomorpholino)ethoxy)quinazoline hydrochloride]
substantially equivalent activity | COc1cc2c(Nc3ccc(Cl)cc3F)ncnc2cc1OCCOCCN1CCOCC1.Cl [Example 53, 4-(4-chloro-2-fluoroanilino)-6-methoxy-7-(22-morpholinoethoxy)ethoxy)quinazoline hydrochloride]
substantially equivalent activity | COc1cc2c(Nc3ccc(Cl)cc3F)ncnc2cc1OCCCN1CCC[C@H]1C(N)=O.Cl [Example 54, (S)-7-(3-(2-carbamoylpyrrolidin-1-yl)propoxy)4-(4-chloro-2-fluoroanilino)-6-methoxyquinazoline hydrochloride]
substantially equivalent activity | COc1cc2c(Nc3ccc(Cl)cc3F)ncnc2cc1OCCCN1CC(C)OC(C)C1.Cl (stereo not shown) [Example 55, 4-(4-chloro-2-fluoroanilino)7(3(2,6-dimethylmorpholino)propoxy)6-methoxyquinazoline hydrochloride]
substantially equivalent activity | Cl.Fc1cc(Cl)ccc1NCOc1ncnc2cc(SCCCN3CCOCC3)ccc12 [Example 56, 4-(4-chloro-2-fluoroanilino)methoxy-7-(3-morpholinopropylthio)quinazoline hydrochloride]
substantially equivalent activity | COc1cc2c(Nc3ccc(Cl)cc3F)ncnc2cc1OCCCN(C)S(C)(=O)=O.Cl [Example 59]
substantially equivalent activity | COc1cc2c(Nc3ccc(Cl)cc3F)ncnc2cc1OCCOCCN1CCN(C)CC1.Cl [Example 63]
substantially equivalent activity | COc1cc2c(Nc3ccc(Cl)cc3F)ncnc2cc1OCCOCCN1CCCC1.Cl [Example 64, 4-(4-chloro-2-fluoroanilino)-6-methoxy-7-(2-(2-pyrrolidin-1-ylethoxy)ethoxy)quinazoline hydrochloride]
substantially equivalent activity | COc1cc2c(Nc3ccc(Cl)cc3F)ncnc2cc1OC/C=C/CN1CCOCC1.Cl [Example 66, (E)-4-(4-chloro-2-fluoroanilino)-6-methoxy-7-(4-morpholinobut-2-en-1-yloxy)quinazoline hydrochloride]
substantially equivalent activity | COc1cc2c(Nc3ccc(Br)cc3F)ncnc2cc1OCCN1CCOCC1=O.Cl [Example 67, 4-(4-bromo-2-fluoroanilino)-6-methoxy-7-(2-(3 oxomorpholino)ethoxy)quinazoline hydrochloride]
substantially equivalent activity | COc1cc2c(Nc3ccc(Br)cc3F)ncnc2cc1OCCN1CCCC1=O.Cl [Example 68, 4-(4-bromo-2-fluoroanilino)methoxy-7-(2-(2-oxpyrrolidin-1-yl)ethoxy)quinazoline hydrochloride]

Second part, the compound before the results:

Structure (SMILES) | activity against VEGF and EGF receptor tyrosine kinases
COCCOCCOc1cc2ncnc(Nc3ccc(Cl)cc3F)c2cc1OC.Cl [Example 5, 4-(4-chloro-2-fluoroanilino)6-methoxy-7-(2(2-methoxyethoxy)ethoxy)quinazoline hydrochloride] | substantially equivalent activity
COc1cc2c(Nc3ccc(Cl)cc3F)ncnc2cc1OCC1OCCO1 [Example 6, 4-(4-chloro-2-fluoroanilino)-7-(1,3-dioxolan-2-ylmethoxy)-6-methoxyquinazoline] | substantially equivalent activity
COc1cc2c(Nc3ccc(Cl)cc3F)ncnc2cc1OCC#CCN1CCOCC1.Cl.O [Example 10, 4-(4-chloro-2-fluoroanilino)-6-methoxy-7-(4-morpholinobut-2-yn-1-yloxy)quinazoline hydrochloride hydrate] | substantially equivalent activity
COc1cc2c(Nc3ccc(Cl)cc3F)ncnc2cc1OCCN1CCSCC1 [Example 12, 4-(4-chloro-2-fluoroanilino)-6-methoxy-7-(2-thiomorpholinoethoxy)quinazoline] | substantially equivalent activity
COc1cc2c(Nc3ccc(Cl)cc3F)ncnc2cc1OCCCS(C)(=O)=O [Example 16, 4-(4-chloro-2-fluoroanilino)-6-methoxy-7-(3-(methylsulphonyl)propoxy)quinazoline] | substantially equivalent activity
COc1cc2c(Nc3ccc(Cl)cc3F)ncnc2cc1OC/C=C/CN1CCCC1.Cl [Example 17] | substantially equivalent activity
COc1cc2c(Nc3ccc(Cl)cc3F)ncnc2cc1OCCNC(=O)OC(C)(C)C [Example 34, 7-(2-[N-tert-butoxycarbonylamino]ethoxy)4-(4-chloro-2-fluoroanilino)6-methoxyquinazoline] | substantially equivalent activity
COc1cc2c(Nc3ccc(Cl)cc3F)ncnc2cc1OCCN1CCCC1=O.Cl [Example 39, 4-(4-chloro-2-fluoroanilino)6-methoxy-7-(2-(2-oxopyrrolidin-1-yl)ethoxy)quinazoline hydrochloride] | substantially equivalent activity
COc1cc2c(Nc3ccc(Cl)cc3F)ncnc2cc1OCCCN1CCCC1=O.Cl [Example 47, 4-(4-chloro-2-fluoroanilino)-6-methoxy-7-(3-(2-oxopyrrolidin-1-yl)propoxy)quinazoline hydrochloride] | substantially equivalent activity
COc1cc2c(Nc3ccc(Br)cc3F)ncnc2cc1OCCCN1CCCC1=O.Cl [Example 48] | substantially equivalent activity
COc1cc2c(Nc3ccc(Br)cc3F)ncnc2cc1OCCCN(C)S(C)(=O)=O.Cl [Example 49, 4(4bromo-2-fluoroanilino)-6-methoxy-7-(3([N-methyl-N-methylsulphonyl]amino)propoxy)quinazoline hydrochloride] | substantially equivalent activity
COc1cc2c(Nc3ccc(Br)cc3F)ncnc2cc1OCCCN1CCC[C@H]1C(N)=O.Cl [Example 50, (S)-4-(4-bromo-2-fluoroanilino)-7-(3-(2-carbamoylpyrrolidin-1-yl)propoxy)6-methoxyquinazoline hydrochloride] | substantially equivalent activity
COCC(=O)N(C)CCOc1cc2ncnc(Nc3ccc(Cl)cc3F)c2cc1OC.Cl [Example 51, 4-(4-chloro-2-fluoroanilino) methoxy-7-(2-([N-methyl-N-methoxyacetyl]amino)ethoxy)quinazoline hydrochloride] | substantially equivalent activity
